Source: PubChem BioAssay (NCI)
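Dose response: 5 concentrations. Exposure: 48 h. Format: 96-well plates. Endpoint: linear interpolation; highest concentration if not reached. The concentration for full growth arrest is given as TGI.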

Experiments:
Test in all cases: NCI tumour cell line growth inhibition, 48 h
NCI-H226 lung = tested on: NCI-H226 lung
CCRF-CEM leukemia = tested on: CCRF-CEM leukemia
A549 NSCLC = tested on: A549 NSCLC
NCI-H522 lung = tested on: NCI-H522 lung
SK-MEL-2 melanoma = tested on: SK-MEL-2 melanoma
EKVX NSCLC = tested on: EKVX NSCLC
MCF7 breast = tested on: MCF7 breast
SN12C renal = tested on: SN12C renal
NCI-H460 lung = tested on: NCI-H460 lung
HS 578T breast = tested on: HS 578T breast
SF-268 CNS = tested on: SF-268 CNS
PC-3 prostate = tested on: PC-3 prostate
DU-145 prostate = tested on: DU-145 prostate
M14 melanoma = tested on: M14 melanoma
HCC-2998 colon = tested on: HCC-2998 colon
MOLT-4 leukemia = tested on: MOLT-4 leukemia
OVCAR-8 ovarian = tested on: OVCAR-8 ovarian
OVCAR-5 ovarian = tested on: OVCAR-5 ovarian
NCI-H23 lung = tested on: NCI-H23 lung
IGROV1 ovarian = tested on: IGROV1 ovarian
SK-MEL-28 melanoma = tested on: SK-MEL-28 melanoma
UO-31 renal = tested on: UO-31 renal
UACC-62 melanoma = tested on: UACC-62 melanoma
K-562 leukemia = tested on: K-562 leukemia
CAKI-1 renal = tested on: CAKI-1 renal
SF-539 CNS = tested on: SF-539 CNS
OVCAR-3 ovarian = tested on: OVCAR-3 ovarian
SK-OV-3 ovarian = tested on: SK-OV-3 ovarian
NCI/ADR-RES ovarian = tested on: NCI/ADR-RES ovarian
786-0 renal = tested on: 786-0 renal
SNB-75 CNS = tested on: SNB-75 CNS
BT-549 breast = tested on: BT-549 breast
SF-295 CNS = tested on: SF-295 CNS
RPMI-8226 leukemia = tested on: RPMI-8226 leukemia
SR leukemia = tested on: SR leukemia
MDA-N = tested on: MDA-N
MALME-3M melanoma = tested on: MALME-3M melanoma
OVCAR-4 ovarian = tested on: OVCAR-4 ovarian
COLO 205 colon = tested on: COLO 205 colon
SW-620 colon = tested on: SW-620 colon
LOX IMVI melanoma = tested on: LOX IMVI melanoma
ACHN renal = tested on: ACHN renal
HOP-62 NSCLC = tested on: HOP-62 NSCLC
HOP-92 NSCLC = tested on: HOP-92 NSCLC
HL-60(TB) leukemia = tested on: HL-60(TB) leukemia
HCT-15 colon = tested on: HCT-15 colon
MDA-MB-231 breast = tested on: MDA-MB-231 breast
HT29 colon = tested on: HT29 colon
HCT-116 colon = tested on: HCT-116 colon
U251 CNS = tested on: U251 CNS
TK-10 renal = tested on: TK-10 renal
KM12 colon = tested on: KM12 colon
UACC-257 melanoma = tested on: UACC-257 melanoma
MDA-MB-435 = tested on: MDA-MB-435
SNB-19 CNS = tested on: SNB-19 CNS
A498 renal = tested on: A498 renal
SK-MEL-5 melanoma = tested on: SK-MEL-5 melanoma
T-47D breast = tested on: T-47D breast
RXF 393 renal = tested on: RXF 393 renal

O=CN1CCN(c2ccc3ccc(=O)[nH]c3n2)CC1 gave a TGI (NCI-H226 lung) of over 100 µM, a TGI (CCRF-CEM leukemia) of over 100 µM and a TGI (A549 NSCLC) of over 100 µM. It also gave a TGI (NCI-H522 lung) of over 100 µM, a TGI (SK-MEL-2 melanoma) of over 100 µM and a TGI (EKVX NSCLC) of over 100 µM. It also gave a TGI (MCF7 breast) of over 100 µM, a TGI (SN12C renal) of over 100 µM and a TGI (NCI-H460 lung) of over 100 µM. It also gave a TGI (HS 578T breast) of over 100 µM, a TGI (SF-268 CNS) of over 100 µM and a TGI (PC-3 prostate) of over 100 µM. For the same molecule, the TGI (DU-145 prostate) was over 100 µM, the TGI (M14 melanoma) was over 100 µM and the TGI (HCC-2998 colon) was over 100 µM. For the same molecule, the TGI (MOLT-4 leukemia) was over 100 µM, the TGI (OVCAR-8 ovarian) was over 100 µM and the TGI (OVCAR-5 ovarian) was over 100 µM. For the same molecule, the TGI (NCI-H23 lung) was over 100 µM, the TGI (IGROV1 ovarian) was over 100 µM and the TGI (SK-MEL-28 melanoma) was over 100 µM. The TGI (UO-31 renal) was over 100 µM, the TGI (UACC-62 melanoma) was over 100 µM and the TGI (K-562 leukemia) was over 100 µM. For the same molecule, the TGI (CAKI-1 renal) was over 100 µM, the TGI (SF-539 CNS) was over 100 µM and the TGI (OVCAR-3 ovarian) was over 100 µM. It also gave a TGI (SK-OV-3 ovarian) of over 100 µM, a TGI (NCI/ADR-RES ovarian) of over 100 µM and a TGI (786-0 renal) of over 100 µM. The TGI (SNB-75 CNS) was over 100 µM, the TGI (BT-549 breast) was over 100 µM and the TGI (SF-295 CNS) was over 100 µM. The TGI (RPMI-8226 leukemia) was over 100 µM, the TGI (SR leukemia) was over 100 µM and the TGI (MDA-N) was over 100 µM. For the same molecule, the TGI (MALME-3M melanoma) was over 100 µM, the TGI (OVCAR-4 ovarian) was over 100 µM and the TGI (COLO 205 colon) was over 100 µM. It also gave a TGI (SW-620 colon) of over 100 µM, a TGI (LOX IMVI melanoma) of over 100 µM and a TGI (ACHN renal) of over 100 µM. It also gave a TGI (HOP-62 NSCLC) of over 100 µM, a TGI (HOP-92 NSCLC) of over 100 µM and a TGI (HL-60(TB) leukemia) of over 100 µM. It also gave a TGI (HCT-15 colon) of over 100 µM, a TGI (MDA-MB-231 breast) of over 100 µM and a TGI (HT29 colon) of over 100 µM. The TGI (HCT-116 colon) was over 100 µM, the TGI (U251 CNS) was over 100 µM and the TGI (TK-10 renal) was over 100 µM. It also gave a TGI (KM12 colon) of over 100 µM, a TGI (UACC-257 melanoma) of over 100 µM and a TGI (MDA-MB-435) of over 100 µM. For the same molecule, the TGI (SNB-19 CNS) was over 100 µM.
Work on CN(CCN)[C@H](CSSC[C@@H](c1ccccc1O)N(C)CCN)c1ccccc1O yielded a TGI (NCI-H226 lung) of 35.4 µM, a TGI (CCRF-CEM leukemia) of 10.5 µM and a TGI (A549 NSCLC) of 23.9 µM. For the same molecule, the TGI (NCI-H522 lung) was 33 µM, the TGI (SK-MEL-2 melanoma) was 38.9 µM and the TGI (EKVX NSCLC) was 23.9 µM. The TGI (MCF7 breast) was over 52.7 µM, the TGI (SN12C renal) was 23.2 µM and the TGI (NCI-H460 lung) was 24.4 µM. For the same molecule, the TGI (HS 578T breast) was 49.9 µM, the TGI (SF-268 CNS) was 33.7 µM and the TGI (PC-3 prostate) was 30.2 µM. The TGI (DU-145 prostate) was 33.1 µM, the TGI (M14 melanoma) was 33.5 µM and the TGI (HCC-2998 colon) was 25.6 µM. It also gave a TGI (MOLT-4 leukemia) of 23 µM, a TGI (A498 renal) of 39.2 µM and a TGI (SK-MEL-5 melanoma) of 24.4 µM. It also gave a TGI (OVCAR-8 ovarian) of 47.6 µM, a TGI (OVCAR-5 ovarian) of 28.6 µM and a TGI (NCI-H23 lung) of 28.5 µM. For the same molecule, the TGI (SK-MEL-28 melanoma) was 33.5 µM, the TGI (UO-31 renal) was 23.9 µM and the TGI (UACC-62 melanoma) was 24.5 µM. It also gave a TGI (K-562 leukemia) of 24.3 µM, a TGI (CAKI-1 renal) of 25.8 µM and a TGI (SF-539 CNS) of 31.9 µM. For the same molecule, the TGI (OVCAR-3 ovarian) was 28.6 µM, the TGI (T-47D breast) was 48.3 µM and the TGI (SK-OV-3 ovarian) was 25 µM. It also gave a TGI (NCI/ADR-RES ovarian) of 23.5 µM, a TGI (786-0 renal) of 32.6 µM and a TGI (SNB-75 CNS) of 29 µM. For the same molecule, the TGI (BT-549 breast) was 25 µM, the TGI (SF-295 CNS) was 20.4 µM and the TGI (RPMI-8226 leukemia) was 43.2 µM. The TGI (SR leukemia) was 11.5 µM, the TGI (MDA-N) was 24.6 µM and the TGI (MALME-3M melanoma) was 33.3 µM. It also gave a TGI (OVCAR-4 ovarian) of 34 µM, a TGI (COLO 205 colon) of over 53.6 µM and a TGI (SW-620 colon) of over 57.3 µM. For the same molecule, the TGI (LOX IMVI melanoma) was 28.5 µM, the TGI (ACHN renal) was 22.6 µM and the TGI (HOP-62 NSCLC) was 28.6 µM. For the same molecule, the TGI (HOP-92 NSCLC) was 35.6 µM, the TGI (HCT-15 colon) was 18.6 µM and the TGI (MDA-MB-231 breast) was 26.5 µM. For the same molecule, the TGI (HT29 colon) was 21.3 µM, the TGI (HCT-116 colon) was 20.4 µM and the TGI (RXF 393 renal) was 43.7 µM. The TGI (U251 CNS) was over 47.8 µM, the TGI (TK-10 renal) was 30.7 µM and the TGI (KM12 colon) was 28.2 µM. The TGI (UACC-257 melanoma) was 32.8 µM, the TGI (MDA-MB-435) was 42.8 µM and the TGI (SNB-19 CNS) was 26.2 µM.
Molecule O=C(/C=C/c1ccc(OCc2ccccc2)cc1)NCc1ccc(C(=O)NCCc2ccccc2)cc1 has a TGI (NCI-H226 lung) of over 100 µM, a TGI (CCRF-CEM leukemia) of over 100 µM and a TGI (A549 NSCLC) of over 100 µM. It also gave a TGI (NCI-H522 lung) of over 100 µM, a TGI (SK-MEL-2 melanoma) of over 100 µM and a TGI (EKVX NSCLC) of over 100 µM. For the same molecule, the TGI (MCF7 breast) was over 100 µM, the TGI (SN12C renal) was over 100 µM and the TGI (NCI-H460 lung) was over 100 µM. It also gave a TGI (HS 578T breast) of over 100 µM, a TGI (SF-268 CNS) of over 100 µM and a TGI (PC-3 prostate) of over 100 µM. It also gave a TGI (DU-145 prostate) of over 100 µM, a TGI (M14 melanoma) of over 100 µM and a TGI (HCC-2998 colon) of over 100 µM. The TGI (A498 renal) was over 100 µM, the TGI (SK-MEL-5 melanoma) was over 100 µM and the TGI (OVCAR-8 ovarian) was over 100 µM. The TGI (OVCAR-5 ovarian) was over 100 µM, the TGI (NCI-H23 lung) was over 100 µM and the TGI (IGROV1 ovarian) was over 100 µM. The TGI (SK-MEL-28 melanoma) was over 100 µM, the TGI (UO-31 renal) was over 100 µM and the TGI (UACC-62 melanoma) was over 100 µM. It also gave a TGI (CAKI-1 renal) of over 100 µM, a TGI (SF-539 CNS) of over 100 µM and a TGI (OVCAR-3 ovarian) of over 100 µM. For the same molecule, the TGI (T-47D breast) was over 100 µM, the TGI (SK-OV-3 ovarian) was over 100 µM and the TGI (NCI/ADR-RES ovarian) was over 100 µM. For the same molecule, the TGI (786-0 renal) was over 100 µM, the TGI (SNB-75 CNS) was over 100 µM and the TGI (BT-549 breast) was over 100 µM. The TGI (SF-295 CNS) was over 100 µM, the TGI (MDA-N) was over 100 µM and the TGI (MALME-3M melanoma) was over 100 µM. For the same molecule, the TGI (OVCAR-4 ovarian) was over 100 µM, the TGI (COLO 205 colon) was over 100 µM and the TGI (SW-620 colon) was over 100 µM. The TGI (LOX IMVI melanoma) was over 100 µM, the TGI (ACHN renal) was over 100 µM and the TGI (HOP-62 NSCLC) was over 100 µM. The TGI (HOP-92 NSCLC) was over 100 µM, the TGI (HCT-15 colon) was over 100 µM and the TGI (MDA-MB-231 breast) was over 100 µM. It also gave a TGI (HT29 colon) of over 100 µM, a TGI (HCT-116 colon) of over 100 µM and a TGI (RXF 393 renal) of over 100 µM. The TGI (U251 CNS) was over 100 µM, the TGI (TK-10 renal) was over 100 µM and the TGI (KM12 colon) was over 100 µM. For the same molecule, the TGI (UACC-257 melanoma) was over 100 µM, the TGI (MDA-MB-435) was over 100 µM and the TGI (SNB-19 CNS) was over 100 µM.
